The target in one test is EZH2 (Homo sapiens, UniProt Q15910). The test is described as follows: EZH2 assay (rPRC2, 3H SAM methyl transfer to biotinylated oligonucleosomes, FlashPlate). Format: biochemical. In a few lines:
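rPRC2 (2 nM EZH2) with 0.2 μM biotinylated oligonucleosomes, 3.6 μM H3K27me3 peptide, 0.2 μM 3H SAM in pH 8.5 Tris buffer; compounds (80 to 0.16 μM) preincubated 20 min, reaction 60 min, SAH/EDTA quench. Methylated product captured on streptavidin FlashPlates, scintillation counted.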

The target of a further test is Y641N EZH2 (Homo sapiens, UniProt Q15910, Y641N). As to the kind of experiment: Y641N EZH2 assay (as EZH2 assay, H3K27Me2 oligonucleosomes as substrate). Format: biochemical. As to the method: EZH2 Assay: Assays were carried out by mixing rPRC2 together with biotinylated oligonucleosome substrates in the presence of the radio-labeled enzyme co-factor, S-adenosyl-L-methionine (^3H SAM) (Perkin Elmer) and monitoring the enzymatically mediated transfer of tritiated methyl groups from ^3H SAM to histone lysine residues. The amount of resulting tritiated methyl histone product was measured by first capturing the biotinylated oligonucleosomes in streptavidin (SAV) coated FlashPlates (Perkin Elmer), followed by a wash step to remove un-reacted ^3H SAM, and then counting on a TopCount NXT 384 well plate scintillation counter (Perkin Elmer). The final assay conditions for EZH2 were as follows: 50 mM Tris Buffer pH 8.5, 1 mM DTT, 69 μM Brij-35 detergent, 5.0 mM MgCl2, 0.1 mg/mL BSA, 0.2 μM ^3H SAM, 0.2 μM biotinylated oligonucleosomes, 3.6 μM H3K27me3 peptide and 2 nM EZH2.
A 12.5 μL volume of the HMT enzyme, H3K27me3 peptide and oligonucleosome substrate in assay buffer was added to each well of the assay plate using a Multidrop Combi (ThermoFisher). Compounds were pre-incubated with the enzyme for 20 min, followed by initiation of the methyltransferase reaction by addition of 12.5 μL of ^3H SAM in assay buffer (final volume=25 μL). The final concentrations of compounds ranged from a top default concentration of 80 μM down to 0.16 μM in ten 2-fold dilution steps. Reactions were carried out for 60 minutes and quenched with 20 μL per well of 1.96 mM SAH, 50 mM Tris pH 8.5, 200 mM EDTA. Stopped reactions were transferred to SAV coated Flashplates (Perkin Elmer), incubated for 120 min, washed with a plate washer, and then read on the TopCount NXT (1.0 min/well) to measure the amount of methyl histone product formed during the reaction.

Test [1] deals with H3K27me3 mark in HeLa cells. As to the kind of experiment: H3K27me3 Alpha Hela Assay (AlphaLISA). Format: cell-based. Conditions: Homo sapiens, 72 hrs, read-out: EZH2_Cell_H3K27me3_Alpha_HeLa (EC50_K27me3). In a few lines: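 Ten-dose 3-fold series on HeLa cells (1,000/well, 10% DMEM), 72 hrs at 37° C. Lysis, histone extraction, then AlphaLISA with anti-K27me3 acceptor beads, biotinylated anti-H3 C-ter antibody (3 nM final) and streptavidin donor beads (20 μg/mL final); duplicate plate used for viability. DMSO-normalized dose-response curves fitted.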

By IC50 is commonly meant the concentration needed to halve the response being measured. Low values mean greater potency, high ones weaker potency.

Some results are limits rather than exact numbers.

EZH2, sequence (Q15910 whole entry): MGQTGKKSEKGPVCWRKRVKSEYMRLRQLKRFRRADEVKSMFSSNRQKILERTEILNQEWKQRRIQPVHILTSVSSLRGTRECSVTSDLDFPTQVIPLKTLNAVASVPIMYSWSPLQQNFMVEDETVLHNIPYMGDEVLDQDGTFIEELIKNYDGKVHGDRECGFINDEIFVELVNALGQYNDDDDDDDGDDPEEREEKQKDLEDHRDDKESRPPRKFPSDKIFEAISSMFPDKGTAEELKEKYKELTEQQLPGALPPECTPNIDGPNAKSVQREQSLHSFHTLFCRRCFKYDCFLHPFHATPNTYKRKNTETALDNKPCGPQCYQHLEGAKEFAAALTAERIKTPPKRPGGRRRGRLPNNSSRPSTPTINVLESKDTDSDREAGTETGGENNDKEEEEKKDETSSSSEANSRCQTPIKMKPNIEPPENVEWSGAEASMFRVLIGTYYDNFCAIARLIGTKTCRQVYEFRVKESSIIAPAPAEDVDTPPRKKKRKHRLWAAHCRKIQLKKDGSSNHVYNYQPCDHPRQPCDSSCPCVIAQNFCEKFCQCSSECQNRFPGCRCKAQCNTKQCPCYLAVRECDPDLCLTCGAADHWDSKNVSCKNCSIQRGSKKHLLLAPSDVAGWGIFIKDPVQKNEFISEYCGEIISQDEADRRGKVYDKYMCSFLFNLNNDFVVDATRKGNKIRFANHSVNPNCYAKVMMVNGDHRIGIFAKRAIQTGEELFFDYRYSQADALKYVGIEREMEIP
EZH2, sequence (O75530 whole entry partner): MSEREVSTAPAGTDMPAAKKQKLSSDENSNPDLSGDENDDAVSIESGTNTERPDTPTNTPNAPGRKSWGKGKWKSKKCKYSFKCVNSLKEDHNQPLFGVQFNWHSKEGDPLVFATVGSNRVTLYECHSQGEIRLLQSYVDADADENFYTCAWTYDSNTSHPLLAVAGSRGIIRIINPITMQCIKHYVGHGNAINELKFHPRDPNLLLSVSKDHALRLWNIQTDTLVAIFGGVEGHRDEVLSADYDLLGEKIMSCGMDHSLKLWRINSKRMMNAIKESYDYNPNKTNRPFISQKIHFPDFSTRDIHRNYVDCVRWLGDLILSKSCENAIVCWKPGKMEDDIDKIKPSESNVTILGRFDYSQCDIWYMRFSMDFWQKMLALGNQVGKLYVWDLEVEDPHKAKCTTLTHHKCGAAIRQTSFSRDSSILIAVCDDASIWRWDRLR
EZH2, sequence (Q15022 whole entry partner): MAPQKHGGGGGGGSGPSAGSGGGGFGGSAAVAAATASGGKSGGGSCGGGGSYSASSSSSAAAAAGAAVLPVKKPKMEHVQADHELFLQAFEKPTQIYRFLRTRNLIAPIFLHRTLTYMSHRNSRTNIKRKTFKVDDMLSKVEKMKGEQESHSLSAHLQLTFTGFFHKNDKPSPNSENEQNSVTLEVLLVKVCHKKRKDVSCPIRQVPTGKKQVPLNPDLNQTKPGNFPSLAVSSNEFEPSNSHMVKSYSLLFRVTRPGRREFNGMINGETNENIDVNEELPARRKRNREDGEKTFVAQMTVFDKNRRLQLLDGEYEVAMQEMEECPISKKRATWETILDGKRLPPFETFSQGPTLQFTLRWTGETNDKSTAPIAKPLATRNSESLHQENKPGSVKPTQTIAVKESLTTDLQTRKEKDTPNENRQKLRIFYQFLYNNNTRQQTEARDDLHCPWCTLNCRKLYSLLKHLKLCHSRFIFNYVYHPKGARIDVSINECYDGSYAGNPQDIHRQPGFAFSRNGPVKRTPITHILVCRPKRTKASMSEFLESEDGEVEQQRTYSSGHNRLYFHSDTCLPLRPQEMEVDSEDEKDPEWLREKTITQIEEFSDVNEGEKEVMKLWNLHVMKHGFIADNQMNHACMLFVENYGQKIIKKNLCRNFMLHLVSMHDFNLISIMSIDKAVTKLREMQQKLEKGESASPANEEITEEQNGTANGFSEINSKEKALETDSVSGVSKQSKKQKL
Y641N EZH2, sequence (Q15910 whole entry Y641N): as the sequence (Q15910 whole entry) above, with Y641N counted along it
Y641N EZH2, sequence (O75530 whole entry partner): as the sequence (O75530 whole entry partner) above
Y641N EZH2, sequence (Q15022 whole entry partner): as the sequence (Q15022 whole entry partner) above

As to `COc1cc(C)[nH]c(=O)c1CNC(=O)c1c(C)n([C@H](C)C2CCN(S(=O)(=O)c3ccccc3)CC2)c2ccccc12` [Compound 138], the IC50 against EZH2 and against Y641N EZH2 was under 100 nM throughout. The EC50 in test [1] is under 400 nM.

For `COc1cc(C)[nH]c(=O)c1CNC(=O)c1c(C)n([C@H](C)C2CCN(C(=O)C3CC3)CC2)c2ccccc12` [Compound 157], the half-inhibitory concentration (IC50) against EZH2 and against Y641N EZH2 was under 100 nM in each case. In test [1], the EC50 lay within 400 to 2000 nM.

Turning to `COc1cc(C)[nH]c(=O)c1CNC(=O)c1c(C)n([C@H](C)C2CCN(CC3(C(F)(F)F)CC3)CC2)c2ccccc12` [Compound 102], the half-inhibitory concentration (IC50) against EZH2 and against Y641N EZH2 was under 100 nM throughout. Further, the EC50 in test [1] was under 400 nM.

On to `Cc1cc(C)c(CNC(=O)c2c(C)n([C@H](C)C3CCN(C(=O)N4CCN(C)CC4)CC3)c3ccccc23)c(=O)[nH]1` [Compound 162], for which the IC50 at EZH2 and at Y641N EZH2 was under 100 nM in each case. The EC50 in test [1] fell in the range of 400 to 2000 nM.

In the case of `COc1cc(C)[nH]c(=O)c1CNC(=O)c1c(C)n([C@H](C)C2CCN(CC(C)(C)C(F)(F)F)CC2)c2ccccc12` [Compound 136], the IC50 on EZH2 and at Y641N EZH2 was 100 to 1000 nM each time. Moreover, the EC50 in test [1] was under 400 nM.

Consider `COCCOCCOC(=O)N1CCC([C@@H](C)n2c(C)c(C(=O)NCc3c(OC)cc(C)[nH]c3=O)c3ccccc32)CC1` [Compound 140], for which the IC50 on EZH2 and against Y641N EZH2 was under 100 nM each time. The EC50 in test [1] is under 400 nM.

As to `COc1cc(C)[nH]c(=O)c1CNC(=O)c1c(C)n([C@H](C)C2CCN(Cc3c(F)cccc3F)CC2)c2ccccc12` [Compound 150], the IC50 on EZH2 and at Y641N EZH2 was under 100 nM in each case. Also, in test [1], the EC50 lay within 400 to 2000 nM.

With `Cc1cc(Cl)c(CNC(=O)c2c(C)n([C@H](C)C3CCN(CCF)CC3)c3ccccc23)c(=O)[nH]1` [Compound 126], the IC50 against EZH2 and against Y641N EZH2 was under 100 nM throughout. In addition, in test [1], the EC50 was under 400 nM.

With `COc1cc(C)[nH]c(=O)c1CNC(=O)c1c(C)n([C@H](C)C2CCN(C(=O)c3ccccc3)CC2)c2ccccc12` [Compound 153], the IC50 against EZH2 and on Y641N EZH2 was under 100 nM throughout. The EC50 in test [1] fell in the range of 400 to 2000 nM.

Take `COc1cc(C)[nH]c(=O)c1CNC(=O)c1c(C)n([C@H](C)C2CCN(C[C@H](OC)C(F)(F)F)CC2)c2ccccc12` [Compound 121]: the IC50 against EZH2 and on Y641N EZH2 was under 100 nM each time. Besides, the EC50 in test [1] was under 400 nM.

As for `COc1cc(C)[nH]c(=O)c1CNC(=O)c1c(C)n([C@H](C)C2CCN(c3ccc(F)cn3)CC2)c2ccccc12` [Compound 131], the IC50 against EZH2 and on Y641N EZH2 was under 100 nM in each case. For the same molecule, in test [1], the EC50 was under 400 nM.

As for `CCN(CC)C(=O)CN1CCC([C@@H](C)n2c(C)c(C(=O)NCc3c(OC)cc(C)[nH]c3=O)c3ccccc32)CC1` [Compound 168], the IC50 at EZH2 and against Y641N EZH2 was under 100 nM each time. In addition, in test [1], the EC50 is over 2000 nM.

Turning to `Cc1cc(C)c(CNC(=O)c2c(C)n([C@H](C)C3CCN(c4ccc(CN5CCOCC5)cn4)CC3)c3ccccc23)c(=O)[nH]1` [Compound 159], the IC50 against EZH2 and on Y641N EZH2 was under 100 nM in each case. The EC50 in test [1] is 400 to 2000 nM.

Turning to `COCCOCCOCCOCCOCCOCCOC(=O)N1CCC([C@@H](C)n2c(C)c(C(=O)NCc3c(OC)cc(C)[nH]c3=O)c3ccccc32)CC1` [Compound 165], the IC50 against EZH2 is under 100 nM; at Y641N EZH2, 100 to 1000 nM. The EC50 in test [1] was over 2000 nM.

With `COc1cc(C)[nH]c(=O)c1CNC(=O)c1c(C)n([C@H](C)C2CCN(C(CF)CF)CC2)c2ccccc12` [Compound 166], the IC50 against EZH2 and against Y641N EZH2 was under 100 nM in each case. In addition, in test [1], the EC50 was over 2000 nM.

For the origin of these results see US9969716B2, “Indole derivatives as modulators of methyl modifying enzymes, compositions and uses thereof” (Constellation Pharmaceuticals, Inc., priority 2013, dated 2018).
